Test results taken from ChEMBL document CHEMBL3885881, “DrugMatrix”.

Organism: Rattus norvegicus
Assay: DrugMatrix - Regimen: Daily Repeat
Type: toxicity, organism-based, Sprague-Dawley
Set-up: regimen Daily Repeat, gender Male, age 6-8 weeks
Conditions: in vivo, po, route oral GAVAGE, […]; for ABSOLUTE BASOPHIL / BASOPHIL / ABSOLUTE EOSINOPHIL / ABSOLUTE LYMPHOCYTE / ABSOLUTE MONOCYTE / ABSOLUTE SEGMENTED NEUTROPHIL / EOSINOPHIL / ERYTHROCYTE COUNT / HEMATOCRIT / HEMOGLOBIN / LEUKOCYTE COUNT / LYMPHOCYTE / MEAN CORPUSCULAR HEMOGLOBIN / MEAN CORPUSCULAR HEMOGLOBIN CONCENTRATION / MEAN CORPUSCULAR VOLUME / MONOCYTE / NEUTROPHIL / NUCLEATED RED BLOOD CELLS / PLATELET COUNT: tissue Blood; for ALANINE AMINOTRANSFERASE / ALBUMIN / ALKALINE PHOSPHATASE / ASPARTATE AMINOTRANSFERASE / BLOOD UREA NITROGEN / CARBON DIOXIDE / CHOLESTEROL / CREATINE PHOSPHOKINASE / CREATININE / GLUCOSE / LACTATE DEHYDROGENASE / LIPASE / TOTAL BILIRUBIN / TOTAL PROTEIN / URIC ACID: tissue Plasma
[1] = 0 mg/kg, 72 h, dose level Control, time 3 day
[2] = 0 mg/kg, 120 h, dose level Control, time 5 day
[3] = 10 mg/kg, 72 h, dose level M1, time 3 day
[4] = 10 mg/kg, 120 h, dose level M1, time 5 day
[5] = 32 mg/kg, 72 h, dose level M2, time 3 day
[6] = 32 mg/kg, 120 h, dose level M2, time 5 day

SMILES: CC/C(=C(\c1ccccc1)c1ccc(OCCN(C)C)cc1)c1ccccc1 [TAMOXIFEN]
- ABSOLUTE BASOPHIL [1]: 0 CELLS/uL
- BASOPHIL [1]: 0%
- ABSOLUTE BASOPHIL [2]: 0 CELLS/uL
- BASOPHIL [2]: 0%
- ABSOLUTE BASOPHIL [3]: 0 CELLS/uL
- ABSOLUTE EOSINOPHIL [3]: 39 CELLS/uL
- ABSOLUTE LYMPHOCYTE [3]: 8296.33 CELLS/uL
- ABSOLUTE MONOCYTE [3]: 168.33 CELLS/uL
- ABSOLUTE SEGMENTED NEUTROPHIL [3]: 529.67 CELLS/uL
- BASOPHIL [3]: 0%
- EOSINOPHIL [3]: 0.33%
- ERYTHROCYTE COUNT [3]: 5.69 x10E6/uL
- HEMATOCRIT [3]: 36.07%
- HEMOGLOBIN [3]: 13.53 G/DL
- LEUKOCYTE COUNT [3]: 9.03 x10E3/uL
- LYMPHOCYTE [3]: 92.33%
- MEAN CORPUSCULAR HEMOGLOBIN [3]: 23.9 pg
- MEAN CORPUSCULAR HEMOGLOBIN CONCENTRATION [3]: 37.57 G/DL
- MEAN CORPUSCULAR VOLUME [3]: 63.63 fL
- MONOCYTE [3]: 1.67%
- NEUTROPHIL [3]: 5.67%
- NUCLEATED RED BLOOD CELLS [3]: 0 /100WBC
- PLATELET COUNT [3]: 1296.33 x10E3/uL
- ALANINE AMINOTRANSFERASE [3]: 62.67 u/L
- ALBUMIN [3]: 4 G/DL
- ALKALINE PHOSPHATASE [3]: 415 u/L
- ASPARTATE AMINOTRANSFERASE [3]: 79.33 u/L
- BLOOD UREA NITROGEN [3]: 9.67 mg/dL
- CARBON DIOXIDE [3]: 28.33 mmol/L
- CHOLESTEROL [3]: 52.67 mg/dL
- CREATINE PHOSPHOKINASE [3]: 228 u/L
- CREATININE [3]: 0.2 mg/dL
- GLUCOSE [3]: 179 mg/dL
- LACTATE DEHYDROGENASE [3]: 97.33 u/L
- LIPASE [3]: 9.33 u/L
- TOTAL BILIRUBIN [3]: 0.13 mg/dL
- TOTAL PROTEIN [3]: 5.57 G/DL
- URIC ACID [3]: 1.9 mg/dL
- ABSOLUTE BASOPHIL [4]: 0 CELLS/uL
- ABSOLUTE EOSINOPHIL [4]: 119.33 CELLS/uL
- ABSOLUTE LYMPHOCYTE [4]: 10935 CELLS/uL
- ABSOLUTE MONOCYTE [4]: 173 CELLS/uL
- ABSOLUTE SEGMENTED NEUTROPHIL [4]: 706 CELLS/uL
- BASOPHIL [4]: 0%
- EOSINOPHIL [4]: 1%
- ERYTHROCYTE COUNT [4]: 6.34 x10E6/uL
- HEMATOCRIT [4]: 39.5%
- HEMOGLOBIN [4]: 15 G/DL
- LEUKOCYTE COUNT [4]: 11.93 x10E3/uL
- LYMPHOCYTE [4]: 91.67%
- MEAN CORPUSCULAR HEMOGLOBIN [4]: 23.67 pg
- MEAN CORPUSCULAR HEMOGLOBIN CONCENTRATION [4]: 37.97 G/DL
- MEAN CORPUSCULAR VOLUME [4]: 62.37 fL
- MONOCYTE [4]: 1.33%
- NEUTROPHIL [4]: 6%
- NUCLEATED RED BLOOD CELLS [4]: 0 /100WBC
- PLATELET COUNT [4]: 1194 x10E3/uL
- ALANINE AMINOTRANSFERASE [4]: 55.67 u/L
- ALBUMIN [4]: 4.53 G/DL
- ALKALINE PHOSPHATASE [4]: 463 u/L
- ASPARTATE AMINOTRANSFERASE [4]: 84 u/L
- BLOOD UREA NITROGEN [4]: 10.33 mg/dL
- CARBON DIOXIDE [4]: 27 mmol/L
- CHOLESTEROL [4]: 49.33 mg/dL
- CREATINE PHOSPHOKINASE [4]: 234 u/L
- CREATININE [4]: 0.24 mg/dL
- GLUCOSE [4]: 120 mg/dL
- LACTATE DEHYDROGENASE [4]: 120 u/L
- LIPASE [4]: 9.33 u/L
- TOTAL BILIRUBIN [4]: 0.1 mg/dL
- TOTAL PROTEIN [4]: 6.33 G/DL
- URIC ACID [4]: 2.4 mg/dL
- ABSOLUTE BASOPHIL [5]: 0 CELLS/uL
- ABSOLUTE EOSINOPHIL [5]: 54 CELLS/uL
- ABSOLUTE LYMPHOCYTE [5]: 12289.67 CELLS/uL
- ABSOLUTE MONOCYTE [5]: 92.33 CELLS/uL
- ABSOLUTE SEGMENTED NEUTROPHIL [5]: 964 CELLS/uL
- BASOPHIL [5]: 0%
- EOSINOPHIL [5]: 0.33%
- ERYTHROCYTE COUNT [5]: 6.02 x10E6/uL
- HEMATOCRIT [5]: 39.07%
- HEMOGLOBIN [5]: 14.67 G/DL
- LEUKOCYTE COUNT [5]: 13.4 x10E3/uL
- LYMPHOCYTE [5]: 91.67%
- MEAN CORPUSCULAR HEMOGLOBIN [5]: 24.4 pg
- MEAN CORPUSCULAR HEMOGLOBIN CONCENTRATION [5]: 37.53 G/DL
- MEAN CORPUSCULAR VOLUME [5]: 64.97 fL
- MONOCYTE [5]: 0.67%
- NEUTROPHIL [5]: 7.33%
- NUCLEATED RED BLOOD CELLS [5]: 0 /100WBC
- PLATELET COUNT [5]: 1258 x10E3/uL
- ALANINE AMINOTRANSFERASE [5]: 66.67 u/L
- ALBUMIN [5]: 4.63 G/DL
- ALKALINE PHOSPHATASE [5]: 371.33 u/L
- ASPARTATE AMINOTRANSFERASE [5]: 106.67 u/L
- BLOOD UREA NITROGEN [5]: 5.67 mg/dL
- CARBON DIOXIDE [5]: 26.33 mmol/L
- CHOLESTEROL [5]: 43.33 mg/dL
- CREATINE PHOSPHOKINASE [5]: 723.67 u/L
- CREATININE [5]: 0.2 mg/dL
- GLUCOSE [5]: 150.33 mg/dL
- LACTATE DEHYDROGENASE [5]: 184.33 u/L
- LIPASE [5]: 9.33 u/L
- TOTAL BILIRUBIN [5]: 0.1 mg/dL
- TOTAL PROTEIN [5]: 6.03 G/DL
- URIC ACID [5]: 2.5 mg/dL
- ABSOLUTE BASOPHIL [6]: 0 CELLS/uL
- ABSOLUTE EOSINOPHIL [6]: 0 CELLS/uL
- ABSOLUTE LYMPHOCYTE [6]: 12430.67 CELLS/uL
- ABSOLUTE MONOCYTE [6]: 227.33 CELLS/uL
- ABSOLUTE SEGMENTED NEUTROPHIL [6]: 2075.33 CELLS/uL
- BASOPHIL [6]: 0%
- EOSINOPHIL [6]: 0%
- ERYTHROCYTE COUNT [6]: 6.29 x10E6/uL
- HEMATOCRIT [6]: 39.17%
- HEMOGLOBIN [6]: 14.9 G/DL
- LEUKOCYTE COUNT [6]: 14.73 x10E3/uL
- LYMPHOCYTE [6]: 84.33%
- MEAN CORPUSCULAR HEMOGLOBIN [6]: 23.7 pg
- MEAN CORPUSCULAR HEMOGLOBIN CONCENTRATION [6]: 38.07 G/DL
- MEAN CORPUSCULAR VOLUME [6]: 62.27 fL
- MONOCYTE [6]: 1.67%
- NEUTROPHIL [6]: 14%
- NUCLEATED RED BLOOD CELLS [6]: 0 /100WBC
- PLATELET COUNT [6]: 1261.33 x10E3/uL
- ALANINE AMINOTRANSFERASE [6]: 65.67 u/L
- ALBUMIN [6]: 4.73 G/DL
- ALKALINE PHOSPHATASE [6]: 464.33 u/L
- ASPARTATE AMINOTRANSFERASE [6]: 99 u/L
- BLOOD UREA NITROGEN [6]: 11.33 mg/dL
- CARBON DIOXIDE [6]: 27.33 mmol/L
- CHOLESTEROL [6]: 40.33 mg/dL
- CREATINE PHOSPHOKINASE [6]: 288.67 u/L
- CREATININE [6]: 0.23 mg/dL
- GLUCOSE [6]: 136.67 mg/dL
- LACTATE DEHYDROGENASE [6]: 164.33 u/L
- LIPASE [6]: 9.67 u/L
- TOTAL BILIRUBIN [6]: 0.1 mg/dL
